In patent US10500166B2, “Methods for the treatment of erectile dysfunction using fispemifene” (QUATRX PHARMACEUTICALS, priority 2007, dated 2019):

Legend:
Type in all cases: in vivo, human
[1] = test system: SHBG (sex hormone-binding globulin); test: Example 3 study in hypogonadal men: serum sex hormone binding globulin (ITT); settings: Baseline (Visit 2)
Protocol: A randomized, double-blind, placebo controlled, parallel-group study of once-daily doses of fispemifene (100, 200, and 300 mg/day) given for 4 weeks was conducted in a population of hypogonadal men. Subjects were required to meet all of the following inclusion criteria at screening and prior to randomization to be eligible for the study:
There were 77 subjects total. The number of subjects randomized to the 100 mg fispemifene, 200 mg fispemifene, 300 mg fispemifene, and placebo arms were 21, 21, 19, and 16, respectively.
Subjects were randomly assigned to one of four treatment groups in a 1:1:1:1 ratio: • Treatment A (100 mg): fispemifene 100 mg+placebo+placebo; • Treatment B (200 mg): fispemifene 100 mg+fispemifene 100 mg+placebo; • Treatment C (300 mg): fispemifene 100 mg+fispemifene 100 mg+fispemifene 100 mg; and • Treatment D (Placebo): placebo+placebo+placebo.
Subjects took one dose (three capsules) of study medication once a day at home for 4 weeks. Capsules were to be taken in the morning immediately after breakfast, with the exception of the morning of the Week 4 visit. Capsules were not to be taken on the morning of the Week 4 visit because trough plasma levels of fispemifene were determined by a blood sample taken at this visit. Each subject was randomly assigned to treatment with one of the 3 different dose regimens of fispemifene or placebo vehicle. Each subject received a 4 week supply of study drug.
Blood samples were taken from the subjects within 1 week prior to dosing with study drug to establish baseline values; after 2 and 4 weeks of randomization; and 2 weeks after the last dose of study drug. Serum was prepared from those samples and used to determine the mean % change from baseline in total testosterone, free testosterone, SHBG (sex hormone-binding globulin), DHT (dihydrotestosterone), E2 (estradiol), LH (luteinizing hormone), FSH (follicle stimulating hormone), and inhibin B.
3. Percent change from baseline in SHBG, DHT, E2, LH, FSH, inhibin B, and testosterone/E2 ratio at Weeks 2, 4, and 6.

serum testosterone = test: Phase I repeated dose study 101-50202: serum total testosterone; settings: for increase of the mean serum total testosterone compared to baseline: 28 days, healthy men
Description: (§1) Fispemifene has been studied in two phase I studies in humans—in a single dose and a repeated dose study. Effect of fispemifene on hormone levels was one main focus of the repeated dose study. The phase I repeated dose study (number 101-50202) was a randomized, double-blind, placebo-controlled 28-day dose-escalation study performed in 31 healthy, elderly men, aged 50-68 years. The main objective of the study was to investigate the tolerability, safety and pharmacokinetics of fispemifene after repeated oral doses, but the study focused also on the effects of fispemifene on serum free and total testosterone, estradiol, and other relevant hormones. The fispemifene doses 10, 30, 100 and 300 mg per day and placebo were administered once every morning as capsules containing 10 mg or 100 mg of fispemifene, or placebo.
(§2) The variables for safety and tolerability were adverse events, vital signs, 12-lead ECG, clinical laboratory evaluations, physical examination, ultrasound examinations (mammary glands) and inhibin B. For pharmacokinetics, the concentrations of fispemifene and its metabolite(s) were to be evaluated. For pharmacodynamics, serum concentrations of FSH, LH, estradiol, testosterone, SHBG, prolactin, aldosterone, cortisol and TSH before and during treatment were measured and compared with the concentrations in the placebo-group.

estradiol = test: Phase I repeated dose study 101-50202: serum estradiol
Description: as §1, §2

FSH = test: Phase I repeated dose study 101-50202: serum FSH
Description: as §1, §2

[2] = during the 28 days of treatment

OCCOCCOc1ccc(/C(=C(/CCCl)c2ccccc2)c2ccccc2)cc1 [Fispemifene, (Z)-2-{2-[4-(4-Chloro-1,2-diphenylbut-1-enyl)phenoxy]ethoxy}ethanol]
Sex Hormone Binding Globulin, Max ([1]; 100 mg/day): 35.0 nmol/L | Sex Hormone Binding Globulin, Mean ± SD ([1]; 100 mg/day): 18.4 ± 6.96 nmol/L | Sex Hormone Binding Globulin, Median ([1]; 100 mg/day): 17.0 nmol/L | Sex Hormone Binding Globulin, Min ([1]; 100 mg/day): 8.5 nmol/L | Sex Hormone Binding Globulin, Max ([1]; 200 mg/day): 51.0 nmol/L | Sex Hormone Binding Globulin, Mean ± SD ([1]; 200 mg/day): 19.5 ± 11.12 nmol/L | Sex Hormone Binding Globulin, Median ([1]; 200 mg/day): 18.0 nmol/L | Sex Hormone Binding Globulin, Min ([1]; 200 mg/day): 3.7 nmol/L | Sex Hormone Binding Globulin, Max ([1]; 300 mg/day): 48.0 nmol/L | Sex Hormone Binding Globulin, Mean ± SD ([1]; 300 mg/day): 20.0 ± 10.28 nmol/L | Sex Hormone Binding Globulin, Median ([1]; 300 mg/day): 19.0 nmol/L | Sex Hormone Binding Globulin, Min ([1]; 300 mg/day): 5.6 nmol/L | Serum total testosterone, Mean (serum testosterone; 10 mg/day, Baseline): 19.33 nmol/L | Serum total testosterone, Mean (serum testosterone; 10 mg/day, Day 8): 19.83 nmol/L | Serum total testosterone, Mean (serum testosterone; 10 mg/day, Day 15): 20.50 nmol/L | Serum total testosterone, Mean (serum testosterone; 10 mg/day, Day 22): 22.00 nmol/L | Serum total testosterone, Mean (serum testosterone; 10 mg/day, Day 28): 17.40 nmol/L | Serum total testosterone, Mean (serum testosterone; 30 mg/day, Baseline): 15.00 nmol/L | Serum total testosterone, Mean (serum testosterone; 30 mg/day, Day 15): 15.00 nmol/L | Serum total testosterone, Mean (serum testosterone; 30 mg/day, Day 22): 15.80 nmol/L | Serum total testosterone, Mean (serum testosterone; 30 mg/day, Day 28): 14.80 nmol/L | testosterone compared with placebo (serum testosterone; 100 mg and 300 mg): increased statistically significantly | subjects in whom increase in testosterone serum concentration was seen (serum testosterone; 100 mg or 300 mg, 28-day treatment period): all the subjects | increase of the mean serum total testosterone compared to baseline (serum testosterone; 100 mg/day): 32% | increase of the mean serum total testosterone compared to baseline (serum testosterone; 100 mg/day, listed as fispemifene): about 32% | Serum total testosterone, Mean (serum testosterone; 100 mg/day, Baseline): 14.27 nmol/L | Serum total testosterone, Mean (serum testosterone; 100 mg/day, Day 8): 18.67 nmol/L | Serum total testosterone, Mean (serum testosterone; 100 mg/day, Day 15): 19.00 nmol/L | Serum total testosterone, Mean (serum testosterone; 100 mg/day, Day 22): 17.83 nmol/L | Serum total testosterone, Mean (serum testosterone; 100 mg/day, Day 28): 18.83 nmol/L | men with serum testosterone level above the upper limit of normal range (33 nmol/L) during treatment (serum testosterone; 300 mg/day (highest dose)): Two out of six | increase of the mean serum total testosterone compared to baseline (serum testosterone; 300 mg/day): 75% | increase of the mean serum total testosterone compared to baseline (serum testosterone; 300 mg/day, listed as fispemifene): about 75% | Serum total testosterone, Mean (serum testosterone; 300 mg/day, Baseline): 15.67 nmol/L | Serum total testosterone, Mean (serum testosterone; 300 mg/day, Day 8): 23.17 nmol/L | Serum total testosterone, Mean (serum testosterone; 300 mg/day, Day 15): 27.00 nmol/L | Serum total testosterone, Mean (serum testosterone; 300 mg/day, Day 22): 27.83 nmol/L | Serum total testosterone, Mean (serum testosterone; 300 mg/day, Day 28): 27.50 nmol/L | effect on serum concentration of testosterone (serum testosterone; [2]): increased | effect on serum testosterone concentration (serum testosterone; healthy older men, within 28 days from the start of treatment): clinically and statistically significant and dose dependent increase | Serum estradiol, Mean (estradiol; 10 mg/day, Baseline): 106.2 pmol/L | Serum estradiol, Mean (estradiol; 10 mg/day, Day 8): 94.7 pmol/L | Serum estradiol, Mean (estradiol; 10 mg/day, Day 15): 81.7 pmol/L | Serum estradiol, Mean (estradiol; 10 mg/day, Day 22): 116.6 pmol/L | Serum estradiol, Mean (estradiol; 10 mg/day, Day 28): 75.0 pmol/L | Serum estradiol, Mean (estradiol; 30 mg/day, Baseline): 97.8 pmol/L | Serum estradiol, Mean (estradiol; 30 mg/day, Day 8): 105.6 pmol/L | Serum estradiol, Mean (estradiol; 30 mg/day, Day 15): 102.4 pmol/L | Serum estradiol, Mean (estradiol; 30 mg/day, Day 22): 99.6 pmol/L | Serum estradiol, Mean (estradiol; 30 mg/day, Day 28): 87.0 pmol/L | Serum estradiol, Mean (estradiol; 100 mg/day, Baseline): 84.3 pmol/L | Serum estradiol, Mean (estradiol; 100 mg/day, Day 8): 108.3 pmol/L | Serum estradiol, Mean (estradiol; 100 mg/day, Day 15): 111.5 pmol/L | Serum estradiol, Mean (estradiol; 100 mg/day, Day 22): 106.3 pmol/L | Serum estradiol, Mean (estradiol; 100 mg/day, Day 28): 94.5 pmol/L | Serum estradiol, Mean (estradiol; 300 mg/day, Baseline): 102.5 pmol/L | Serum estradiol, Mean (estradiol; 300 mg/day, Day 8): 104.0 pmol/L | Serum estradiol, Mean (estradiol; 300 mg/day, Day 15): 97.8 pmol/L | Serum estradiol, Mean (estradiol; 300 mg/day, Day 22): 95.5 pmol/L | Serum estradiol, Mean (estradiol; 300 mg/day, Day 28): 89.7 pmol/L | Serum FSH, Mean (FSH; 10 mg/day, Baseline): 5.42 U/L | Serum FSH, Mean (FSH; 10 mg/day, Day 8): 5.87 U/L | Serum FSH, Mean (FSH; 10 mg/day, Day 15): 5.20 U/L | Serum FSH, Mean (FSH; 10 mg/day, Day 22): 6.60 U/L | Serum FSH, Mean (FSH; 10 mg/day, Day 28): 5.66 U/L | Serum FSH, Mean (FSH; 30 mg/day, Baseline): 9.14 U/L | Serum FSH, Mean (FSH; 30 mg/day, Day 8): 9.78 U/L | Serum FSH, Mean (FSH; 30 mg/day, Day 15): 10.14 U/L | Serum FSH, Mean (FSH; 30 mg/day, Day 22): 10.18 U/L | Serum FSH, Mean (FSH; 30 mg/day, Day 28): 8.42 U/L | Serum FSH, Mean (FSH; 100 mg/day, Baseline): 6.30 U/L | Serum FSH, Mean (FSH; 100 mg/day, Day 8): 7.68 U/L | Serum FSH, Mean (FSH; 100 mg/day, Day 15): 8.10 U/L | Serum FSH, Mean (FSH; 100 mg/day, Day 22): 8.20 U/L | Serum FSH, Mean (FSH; 100 mg/day, Day 28): 7.73 U/L | Serum FSH, Mean (FSH; 300 mg/day, Baseline): 6.80 U/L | Serum FSH, Mean (FSH; 300 mg/day, Day 8): 8.80 U/L | Serum FSH, Mean (FSH; 300 mg/day, Day 15): 8.73 U/L | Serum FSH, Mean (FSH; 300 mg/day, Day 22): 8.85 U/L | Serum FSH, Mean (FSH; 300 mg/day, Day 28): 7.57 U/L | effect on serum concentration of FSH (FSH; [2]): increased
